Experimental data published in patent EP0203559A1, “Penicillin derivative containing naphthyridine” (AUSONIA FARMACEUTICI S.r.l., priority 1985, dated 1986).
Converted amounts (≈) assume the structure as drawn.

Assays:
Staph. aureus coag. pos. = assay: Minimal inhibitory concentrations (MIC) against amoxicillin resistant bacteria (Table 1); format: cell-based; details: Staphylococcus aureus, 4 strains
Staph. albus [1] = assay: In vitro antibacterial activity (MIC), compound I versus 1:1 combination with amoxicillin (Table 3); format: cell-based; details: 1 strain, compound I alone
[2] = test system: CSH50(RP4)xZM46 (plasmid RP4, Inc P); assay: Inhibition of plasmid transfer by conjugation; format: cell-based, E. coli; details: Escherichia coli
From the text: (§1) Another advantageous feature of compound I resides in its ability to inhibit the transfer of bacterial plasmids by conjugation, said ability being shared by other compounds of quinoline structure and being important since it interferes with transmission of bacterial resistance.
(§2) Phenotype symbols according Novick et al. (1976) were used.
(§3) The following antibiotics were used: streptomycin (Sm), tetracycline (Tc), ampicillin (Ap), kanamycin (Km) and rifampicin (Rif). Compound I in 1 and 10 mcg/ml concentrations was used in the transfer mixtures. • - Microorganisms were grown in Nutrient Broth (B.B.L.), NB, or in Nutrient Agar or Mc Conkey Agar (B.B.L.). Appropriate antibiotic concentrations were added to the selection plates. Sm 10, Tc 10, Ap 30, Km 30, Rif 100 and Nal 50. • - Bacterial strains were incubated till 2.5 x 10^8 cells/ml of nutrient broth exponential phase, and crossed in a donor/recipient 1:5 ratio in 2 x broth during 18 hours at 37°C. On the other hand, in the interrupted crosses, the bacteria were stirred by means of the Vortex apparatus for 1 minute after 1 h cross. • - About one hundred colonies, which could growth on the selection plates (containing the various antibiotics) were checked for the resistance spectrum by "replica plating". • - The transfer frequence was expressed as the number of resistent recipients in comparison with the number of donors in the mating mixtures, at the plating time. The inhibition rate of plasmid transfer was evaluated in tests in which, in the mating mixtures, compound I was present in 1 or 10 mcg/ml concentrations.
(§4) The activity of compound I was tested in different cross systems between E. coli x E. coli.

[3] = test system: UR10(R446)xZM46 (plasmid R446, Inc M); assay: Inhibition of plasmid transfer by conjugation; format: cell-based, E. coli; details: Escherichia coli
From the text: as §1, §2, §3, §4

[4] = test system: CSH28F'lacproxZM46 (plasmid F'lacpro, Inc FI); assay: Inhibition of plasmid transfer by conjugation; format: cell-based, E. coli; details: Escherichia coli
From the text: as §1, §2, §3, §4

E. coli [5] = assay: In vitro antibacterial activity (MIC), compound I versus 1:1 combination with amoxicillin (Table 3); format: cell-based; details: Escherichia coli, 2 strains, average value, compound I alone
E. coli [6] = assay: Minimal inhibitory concentrations (MIC) against amoxicillin resistant bacteria (Table 1); format: cell-based; details: Escherichia coli, 6 strains
Klebsiella pneumoniae = assay: In vitro antibacterial activity (MIC), compound I versus 1:1 combination with amoxicillin (Table 3); format: cell-based; details: 4 strains, average value, compound I alone
Staph. aureus CH1 = assay: Minimal inhibitory concentrations (MIC) against amoxicillin resistant bacteria (Table 1); format: cell-based; details: Staphylococcus aureus, Staph. aureus CH1, 1 strain
[7] = test system: tryptic enzymes (trypsin, pepsin, etc.); assay: Stability to tryptic enzymes; format: in vitro ADME
Pseudomas aeruginosa = assay: Minimal inhibitory concentrations (MIC) against amoxicillin resistant bacteria (Table 1); format: cell-based; details: 5 strains
[8] = test system: B-lactamases from both Gram-positive and Gram-negative bacteria; assay: Inhibitory activity against B-lactamases; format: biochemical; details: dosage of 100 δ
Method: (§5) In order to further evaluate its therapeutic potentiality, compound I was tested for any inhibitory activity against B-lactamases.

Staph. aureus = assay: In vitro antibacterial activity (MIC), compound I versus 1:1 combination with amoxicillin (Table 3); format: cell-based; details: Staphylococcus aureus, 8 strains, average value, compound I alone
Pseudomonas aeruginosa = assay: as above; format: cell-based; details: 5 strains, average value, compound I alone
Proteus rettgeri = assay: as above; format: cell-based; details: Providencia rettgeri, 1 strain, compound I alone
Serratia marcescens [9] = assay: as above; format: cell-based; details: 2 strains, average value, compound I alone
Proteus mirabilis = assay: Minimal inhibitory concentrations (MIC) against amoxicillin resistant bacteria (Table 1); format: cell-based; details: 3 strains
B-lactamases = assay: Stability to B-lactamases; format: in vitro ADME
Citrob. freundii = assay: In vitro antibacterial activity (MIC), compound I versus 1:1 combination with amoxicillin (Table 3); format: cell-based; details: Citrobacter freundii, 2 strains, average value, compound I alone
Salmonella enteriditis = assay: as above; format: cell-based; details: 2 strains, average value, compound I alone
Staph. albus [10] = assay: Minimal inhibitory concentrations (MIC) against amoxicillin resistant bacteria (Table 1); format: cell-based; details: 1 strain
Enterob. cloacee = assay: In vitro antibacterial activity (MIC), compound I versus 1:1 combination with amoxicillin (Table 3); format: cell-based; details: 2 strains, average value, compound I alone
Serratia marcescens [11] = assay: Minimal inhibitory concentrations (MIC) against amoxicillin resistant bacteria (Table 1); format: cell-based; details: 2 strains
[12] = test system: ß-Lactamase isolated from: E. coli; assay: Inhibition of hydrolysis rates of ß-lactamases; format: biochemical
Method: as §5

[13] = test system: ß-Lactamase isolated from: B. cereus; assay: Inhibition of hydrolysis rates of ß-lactamases; format: biochemical
Method: as §5

[14] = test system: Gram-positive and Gram-negative strains resistant to amoxicillin alone; assay: MIC of amoxicillin alone against the resistant strains of Table 3; format: cell-based

CCn1cc(C(=O)NC(C(=O)NC2C(=O)N3C2SC(C)(C)C3C(=O)O)c2ccc(O)cc2)c(=O)c2ccc(C)nc21 [Compound I, D-(-)-α-[(1-ethyl-1,4-dihydro-7-methyl-4-oxo-1,8-naphthyridine-3-carboxyamido)-α-(p-hydroxyphenyl)-acetamido]penicil lanic acid]
MIC (Staph. aureus coag. pos.): 3.12 µg/mL (≈ 5.38 µM)
MIC (Staph. albus [1]): 6.25 µg/mL
inhibition at 1 µg/mL [2]: 36.4%
inhibition at 10 µg/mL [2]: 66.2%
inhibition at 1 µg/mL [3]: 19.1%
inhibition at 10 µg/mL [3]: 74.5%
inhibition at 1 µg/mL [4]: 40.2%
inhibition at 10 µg/mL [4]: 69.7%
MIC (E. coli [5]): 75 µg/mL
MIC (E. coli [6]): 25 µg/mL (≈ 43.1 µM)
MIC (Klebsiella pneumoniae): 87.5 µg/mL
MIC (Staph. aureus CH1): 1.56 µg/mL (≈ 2.69 µM)
stability to tryptic enzymes (trypsin, pepsin, etc.) [7]: stable to tryptic enzymes
MIC (Pseudomas aeruginosa): 50 µg/mL (≈ 86.3 µM)
inhibition of enzymatic activity of B-lactamases [8]: completely inhibiting any enzymatic activity
MIC (Staph. aureus): 10.3 µg/mL
MIC (Pseudomonas aeruginosa): 50 µg/mL
MIC (Proteus rettgeri): 50 µg/mL
MIC (Serratia marcescens [9]): 50 µg/mL
MIC (Proteus mirabilis): 25 µg/mL (≈ 43.1 µM)
stability to B-lactamases (B-lactamases): stable to B-lactamases
MIC (Citrob. freundii): 100 µg/mL
MIC (Salmonella enteriditis): 100 µg/mL
MIC (Staph. albus [10]): 6.25 µg/mL (≈ 10.8 µM)
MIC (Enterob. cloacee): 100 µg/mL
MIC (Serratia marcescens [11]): 50 µg/mL (≈ 86.3 µM)
% inhibition ([12]; Conc. 50 γ/ml): 50%
% inhibition ([12]; Conc. 75 γ/ml): 90%
% inhibition ([12]; Conc. 100 γ/ml): 100%
% inhibition ([13]; Conc. 50 γ/ml): 50%
% inhibition ([13]; Conc. 75 γ/ml): 90%
% inhibition ([13]; Conc. 100 γ/ml): 100%

CC1(C)S[C@@H]2[C@H](NC(=O)[C@H](N)c3ccc(O)cc3)C(=O)N2[C@H]1C(=O)O [amoxicillin]
MIC [14]: ≥ 800 µg/mL
